Experimental data: PubChem BioAssay AID256 (DTP/NCI, 2004)
Several values for one entry are separate records, joined by “and”; a condition that tells them apart may be missing. Equal values may be shown once. Toxic doses and inconclusive results are not listed.

Tested on: CD2F1 mice, L1210 leukemia ip, survival T/C
Experiment: NCI In Vivo Anticancer Drug Screen. Data for tumor model L1210 Leukemia (intraperitoneal) in CD2F1 (CDF1) mice
Conditions: higher = longer survival
In short: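 Each value reflects a quotient of treated over vehicle control outcomes in mice with a transplanted tumor.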

[1] = endpoint: mean survival time, dose: 100.0 mg/kg/injection, schedule: Q04DX003 (ip), vehicle: saline with Tween-80
[2] = endpoint: mean survival time, dose: 200.0 mg/kg/injection, schedule: Q04DX003 (ip), vehicle: saline with Tween-80
[3] = endpoint: mean survival time, dose: 400.0 mg/kg/injection, schedule: Q04DX003 (ip), vehicle: saline with Tween-80
[4] = endpoint: mean survival time, dose: 100.0 mg/kg/injection, schedule: Q01DX009 (ip), vehicle: saline with Tween-80
[5] = endpoint: mean survival time, dose: 200.0 mg/kg/injection, schedule: Q01DX009 (ip), vehicle: saline with Tween-80
[6] = endpoint: mean survival time, dose: 400.0 mg/kg/injection, schedule: Q01DX009 (ip), vehicle: saline with Tween-80
[7] = endpoint: mean survival time, dose: 50.0 mg/kg/injection, schedule: Q01DX009 (ip), vehicle: saline with Tween-80
[8] = endpoint: mean survival time, dose: 100.0 mg/kg/injection, schedule: Q04DX003 (ip), vehicle: saline
[9] = endpoint: mean survival time, dose: 12.5 mg/kg/injection, schedule: Q01DX009 (ip), vehicle: saline with Tween-80
[10] = endpoint: mean survival time, dose: 25.0 mg/kg/injection, schedule: Q01DX009 (ip), vehicle: saline with Tween-80
[11] = endpoint: mean survival time, dose: 100.0 mg/kg/injection, schedule: Q01DX001 (ip), vehicle: saline with Tween-80
[12] = endpoint: mean survival time, dose: 100.0 mg/kg/injection, schedule: Q04DX003 (ip), vehicle: saline sonified
[13] = endpoint: mean survival time, dose: 400.0 mg/kg/injection, schedule: Q01DX001 (ip), vehicle: saline with Tween-80
[14] = endpoint: mean survival time, dose: 25.0 mg/kg/injection, schedule: Q01DX009 (ip), vehicle: saline

## CC(C)CCC(C)C1CCC2C3CC([N+](=O)[O-])=C4CC(OC(=O)c5ccccc5)CCC4(C)C3CCC12C (configuration not stated)
[1]
  T/C: 102 % of control
[2]
  T/C: 92 % of control
[3]
  T/C: 92 % of control

## NS(=O)(=O)c1ccc(N=Cc2ccccc2O)cc1
[4]
  T/C: 95 % of control
[5]
  T/C: 89 % of control
[6]
  T/C: 86 % of control

## c1cc(C2CCOCC2)ccn1
[7]
  T/C: 109 % of control
[8]
  T/C: 92 % of control
endpoint: mean survival time, dose: 200.0 mg/kg/injection, schedule: Q04DX003 (ip), vehicle: saline
  T/C: 90 % of control

## CCC1CN2CCC1CC2C(O)c1cc[n+]([O-])c2ccc(OC)cc12 (configuration not stated)
endpoint: mean survival time, dose: 100.0 mg/kg/injection, schedule: Q04DX003 (ip), vehicle: Klucel (hydroxypropylcellulose) (HPC)
  T/C: 98 % of control
endpoint: mean survival time, dose: 200.0 mg/kg/injection, schedule: Q04DX003 (ip), vehicle: Klucel (hydroxypropylcellulose) (HPC)
  T/C: 102 % of control
endpoint: mean survival time, dose: 400.0 mg/kg/injection, schedule: Q04DX003 (ip), vehicle: Klucel (hydroxypropylcellulose) (HPC)
  T/C: 102 % of control

## CC12NC(=O)NC1(C)NC(=O)N2 (configuration not stated)
[4]
  T/C: 95 % of control
[5]
  T/C: 101 % of control
[6]
  T/C: 86 % of control

## NC1CCC(CCCC2CCCC2)CC1 (configuration not stated)
endpoint: mean survival time, dose: 6.25 mg/kg/injection, schedule: Q01DX009 (ip), vehicle: saline with Tween-80
  T/C: 102 % of control
[9]
  T/C: 98 % of control
[10]
  T/C: 102 % of control

## FCCc1cccc(C(F)(F)F)c1
[11]
  T/C: 103 % of control
[12]
  T/C: 94 % of control
endpoint: mean survival time, dose: 200.0 mg/kg/injection, schedule: Q01DX001 (ip), vehicle: saline with Tween-80
  T/C: 101 % of control
endpoint: mean survival time, dose: 200.0 mg/kg/injection, schedule: Q04DX003 (ip), vehicle: saline sonified
  T/C: 98 % of control
[13]
  T/C: 101 % of control
endpoint: mean survival time, dose: 400.0 mg/kg/injection, schedule: Q04DX003 (ip), vehicle: saline sonified
  T/C: 98 % of control

## C(=C\c1ccncc1)/c1ccccc1
[1]
  T/C: 93 % of control
[2]
  T/C: 92 % of control
[3]
  T/C: 93 % of control

## CCCCOC(=O)CCC(NC(=O)c1ccc(N(C)Cc2cnc3nc(N)nc(N)c3n2)cc1)C(=O)O (configuration not stated)
endpoint: mean survival time, dose: 0.19 mg/kg/injection, schedule: Q01DX009 (ip), vehicle: water
  T/C: 112 % of control
endpoint: mean survival time, dose: 0.38 mg/kg/injection, schedule: Q01DX009 (ip), vehicle: water
  T/C: 120 % of control
endpoint: mean survival time, dose: 1.5 mg/kg/injection, schedule: Q01DX009 (ip), vehicle: water
  T/C: 159 % of control
endpoint: mean survival time, dose: 3.0 mg/kg/injection, schedule: Q01DX009 (ip), vehicle: water
  T/C: 180 % of control
endpoint: mean survival time, dose: 6.0 mg/kg/injection, schedule: Q01DX009 (ip), vehicle: water
  T/C: 86 % of control

## N#CC(C#N)=CN1CCCC1
endpoint: mean survival time, dose: 5.0 mg/kg/injection, schedule: Q01DX001 (ip), vehicle: saline with Tween-80
  T/C: 100 % of control
endpoint: mean survival time, dose: 10.0 mg/kg/injection, schedule: Q01DX001 (ip), vehicle: saline with Tween-80
  T/C: 102 % of control
endpoint: mean survival time, dose: 20.0 mg/kg/injection, schedule: Q01DX001 (ip), vehicle: saline with Tween-80
  T/C: 93 % of control

## O=[N+]([O-])c1cc(S(=O)(=O)F)ccc1Cl
[9]
  T/C: 100 % of control
[10]
  T/C: 94 % of control
[7]
  T/C: 97 % of control and 103 % of control

## O=C(O)CO.[NH2-].[NH2-].[Pt+2]
endpoint: median survival time, dose: 20.0 mg/kg/injection, schedule: Q04DX003 (ip), vehicle: saline
  T/C: 192 % of control and 238 % of control
endpoint: median survival time, dose: 40.0 mg/kg/injection, schedule: Q04DX003 (ip), vehicle: saline
  T/C: 182 % of control and 340 % of control
endpoint: median survival time, dose: 80.0 mg/kg/injection, schedule: Q04DX003 (ip), vehicle: saline
  T/C: 98 % of control and 102 % of control

## NC(Cn1ccc(=O)c(O)c1)C(=O)O (configuration not stated)
endpoint: median survival time, dose: 50.0 mg/kg/injection, schedule: Q01DX009 (ip), vehicle: saline
  T/C: 106 % of control
endpoint: median survival time, dose: 100.0 mg/kg/injection, schedule: Q01DX009 (ip), vehicle: saline
  T/C: 107 % of control
endpoint: median survival time, dose: 200.0 mg/kg/injection, schedule: Q01DX009 (ip), vehicle: saline
  T/C: 107 % of control
endpoint: median survival time, dose: 400.0 mg/kg/injection, schedule: Q01DX009 (ip), vehicle: saline
  T/C: 114 % of control

## CCCCOB(OCCCC)OCCCC
[1]
  T/C: 98 % of control
[2]
  T/C: 93 % of control
[3]
  T/C: 103 % of control

## N#C/C(=C\c1cccc2ccccc12)c1ccccc1
[4]
  T/C: 100 % of control
[1]
  T/C: 93 % of control
[5]
  T/C: 96 % of control
[2]
  T/C: 98 % of control
[6]
  T/C: 97 % of control
[3]
  T/C: 102 % of control

## O=C(NNC(=O)C(F)(F)F)c1ccccc1
endpoint: mean survival time, dose: 12.5 mg/kg/injection, schedule: Q01DX009 (ip), vehicle: other
  T/C: 92 % of control
endpoint: mean survival time, dose: 25.0 mg/kg/injection, schedule: Q01DX009 (ip), vehicle: other
  T/C: 94 % of control
endpoint: mean survival time, dose: 50.0 mg/kg/injection, schedule: Q01DX009 (ip), vehicle: other
  T/C: 94 % of control
endpoint: mean survival time, dose: 100.0 mg/kg/injection, schedule: Q01DX009 (ip), vehicle: other
  T/C: 118 % of control
endpoint: mean survival time, dose: 200.0 mg/kg/injection, schedule: Q01DX009 (ip), vehicle: other
  T/C: 109 % of control

## CCOC(=O)C(O)(C(=O)OCC)c1ccc(C)cc1
[4]
  T/C: 97 % of control
[1]
  T/C: 102 % of control
[5]
  T/C: 97 % of control
[2]
  T/C: 100 % of control
[6]
  T/C: 97 % of control
[3]
  T/C: 100 % of control

## CCCCC(CC)COP(OCC(CC)CCCC)OCC(CC)CCCC (configuration not stated)
[4]
  T/C: 92 % of control
[5]
  T/C: 87 % of control

## CC1(C)N=C(N)N=C(N)N1c1ccc(C(=O)Nc2ccc(S(=O)(=O)F)cc2)cc1
endpoint: mean survival time, dose: 100.0 mg/kg/injection, schedule: Q01DX001 (ip), vehicle: saline
  T/C: 94 % of control
endpoint: mean survival time, dose: 200.0 mg/kg/injection, schedule: Q01DX001 (ip), vehicle: saline
  T/C: 97 % of control
endpoint: mean survival time, dose: 400.0 mg/kg/injection, schedule: Q01DX001 (ip), vehicle: saline
  T/C: 103 % of control

## NNC(=O)Nc1nn[nH]n1
endpoint: mean survival time, dose: 100.0 mg/kg/injection, schedule: Q04DX002 (ip), vehicle: saline with Tween-80
  T/C: 97 % of control
endpoint: mean survival time, dose: 200.0 mg/kg/injection, schedule: Q04DX002 (ip), vehicle: saline with Tween-80
  T/C: 97 % of control
endpoint: mean survival time, dose: 400.0 mg/kg/injection, schedule: Q04DX002 (ip), vehicle: saline with Tween-80
  T/C: 94 % of control

## CN(Cc1cnc2nc(N)nc(N)c2n1)c1ccc(C(=O)NC(CCC(=O)OC(C)(C)C)C(=O)OC(C)(C)C)cc1 (configuration not stated)
endpoint: mean survival time, dose: 1.56 mg/kg/injection, schedule: Q01DX009 (ip), vehicle: saline with Tween-80
  T/C: 112 % of control
endpoint: mean survival time, dose: 3.12 mg/kg/injection, schedule: Q01DX009 (ip), vehicle: saline with Tween-80
  T/C: 121 % of control
endpoint: mean survival time, dose: 4.5 mg/kg/injection, schedule: Q01DX009 (ip), vehicle: saline with Tween-80
  T/C: 111 % of control

## O=C(Nc1ccc(C(=O)O)cc1)OCc1ccccc1
[1]
  T/C: 100 % of control
[2]
  T/C: 101 % of control
[3]
  T/C: 91 % of control

## CCSCCCC(=O)O
[14]
  T/C: 97 % of control
endpoint: mean survival time, dose: 50.0 mg/kg/injection, schedule: Q01DX009 (ip), vehicle: saline
  T/C: 93 % of control
endpoint: mean survival time, dose: 100.0 mg/kg/injection, schedule: Q01DX009 (ip), vehicle: saline
  T/C: 101 % of control
[12]
  T/C: 101 % of control

## COC(=O)Nc1nc2ccc(C3(c4ccc(F)cc4)OCCO3)cc2[nH]1
endpoint: mean survival time, dose: 1.56 mg/kg/injection, schedule: Q01DX009 (ip), vehicle: saline
  T/C: 96 % of control
endpoint: mean survival time, dose: 3.12 mg/kg/injection, schedule: Q01DX009 (ip), vehicle: saline
  T/C: 91 % of control
endpoint: mean survival time, dose: 6.25 mg/kg/injection, schedule: Q01DX009 (ip), vehicle: saline
  T/C: 90 % of control
[9]
  T/C: 104 % of control
endpoint: mean survival time, dose: 12.5 mg/kg/injection, schedule: Q01DX009 (ip), vehicle: saline
  T/C: 94 % of control and 104 % of control
[10]
  T/C: 106 % of control
[14]
  T/C: 105 % of control
endpoint: mean survival time, dose: 40.0 mg/kg/injection, schedule: Q04DX003 (ip), vehicle: saline
  T/C: 120 % of control
endpoint: mean survival time, dose: 50.0 mg/kg/injection, schedule: Q04DX003 (ip), vehicle: saline
  T/C: 115 % of control
endpoint: mean survival time, dose: 60.0 mg/kg/injection, schedule: Q04DX003 (ip), vehicle: saline
  T/C: 151 % of control and 152 % of control
endpoint: mean survival time, dose: 80.0 mg/kg/injection, schedule: Q04DX003 (ip), vehicle: saline
  T/C: 181 % of control
[8]
  T/C: 181 % of control
endpoint: mean survival time, dose: 150.0 mg/kg/injection, schedule: Q01DX009 (oral), vehicle: saline
  T/C: 156 % of control
[5]
  T/C: 87 % of control
endpoint: mean survival time, dose: 200.0 mg/kg/injection, schedule: Q01DX009 (oral), vehicle: saline
  T/C: 156 % of control

## Nc1cc(Cl)c(Cl)cc1S(=O)(=O)NO
[1]
  T/C: 95 % of control
[3]
  T/C: 89 % of control

## COc1ccc(NC(C)=O)c(O)c1C
[11]
  T/C: 95 % of control
[13]
  T/C: 90 % of control
